Test results published in ChEMBL document CHEMBL3600296, “Synthesis and evaluation of pyrrolotriazine based molecules as PI3 kinase inhibitors” (Bioorg Med Chem Lett, 2015).

Legend:
Conditions in all cases: 2 h
Liver microsome [1] = assay: Metabolic stability in dog liver microsomes at 10 uM up to 120 mins by HPLC analysis; format: ADME, Canis lupus familiaris
Liver microsome [2] = assay: Metabolic stability in human liver microsomes at 10 uM up to 120 mins by HPLC analysis; format: ADME
[3] = Metabolic stability in mouse liver microsomes at 10 uM up to 120 mins by HPLC analysis; format: ADME

Measured: Stability

Nc1ncc(-c2nc(N3CCOCC3)c3cccn3n2)cn1
Stable: Liver microsome [1] | Liver microsome [2] | [3]

c1cc(-c2nc(N3CCOCC3)c3cccn3n2)c2cn[nH]c2c1
Stable: Liver microsome [1] | Liver microsome [2] | [3]

COCc1ccc2c(N3CCOCC3)nc(-c3cnc(N)nc3)nn12
Stable: Liver microsome [1] | Liver microsome [2] | [3]
